Assays:
[1] = target: T1, human monoacylglycerol lipase (hMAGL) (Homo sapiens, UniProt Q99685); assay: spectrophotometric assay with 4-nitrophenyl acetate, single-point % inhibition at […]; format: biochemical
T1 construct: gene MGLL
T1 sequence (Q99685 1-303): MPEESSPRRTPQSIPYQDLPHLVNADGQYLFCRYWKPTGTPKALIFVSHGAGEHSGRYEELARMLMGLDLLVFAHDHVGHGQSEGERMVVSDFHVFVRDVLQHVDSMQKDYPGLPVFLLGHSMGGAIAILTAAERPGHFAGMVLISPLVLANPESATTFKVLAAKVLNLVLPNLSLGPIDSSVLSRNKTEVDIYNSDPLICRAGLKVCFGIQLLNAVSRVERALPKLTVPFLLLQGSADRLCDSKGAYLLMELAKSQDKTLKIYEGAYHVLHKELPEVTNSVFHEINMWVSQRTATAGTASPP

[2] = target: T1, human monoacylglycerol lipase (hMAGL); assay: spectrophotometric assay with 4-nitrophenyl acetate, recombinant human MAGL, dose-response; format: biochemical

| SMILES | spectrophotometric assay with 4-nitrophenyl acetate, single-point % inhibition a [1] | IC50 [2] [µM] |
| --- | --- | --- |
| CCCCCCCC/C=C\CCCCCCCC(=O)OCCCCCCCCCCCCCCCC [3i, Hexadecyl oleate] | their longer analogue 3i (cetyl oleate) displayed slightly weaker potency in the same test |  |
| CCCCCCCCCCCCCCCCOC(=O)CCCCCCCCC [3b, Hexadecyl decanoate] |  | 36 ± 4 |
| CCCCCC/C=C\CCCCCCCC(=O)OCCCCCCCCCCCCCCCC [3h, Hexadecyl (Z)-hexadec-9-enoate] | its close analogue 3h (cetyl palmitoleate), possessing the double bond at the same distance from the ester group as 3g, proved to be equally active |  |
